Data published in patent US20190290656A1, “PT(IV) PRODRUGS” (YISSUM RESEARCH DEVELOPMENT COMPANY OF THE HEBREW …, priority 2015, published 2019).

Legend:
[1] = test system: Histone deacetylase (HDAC); assay: Histone deacetylase assay (Fluor-de-Lys) in MCF-7 cells; assay type: cell-based, human; settings: MCF-7, 24 h, IC50 concentrations
Procedure: Histone deacetylase activity was determined using Fluor-de-Lys® HDAC fluorometric activity assay kit (Enzo Life Sciences International, Inc., Plymount Meeting, Pa., U.S.A.). […] Fluorescence was measured using a Fluoroskan Ascent FL (Labsystem, Finland) plate reader, with excitation at 360 nm and emission at 460 nm. For comparison purpose, the HDAC activity was also measured in nuclear extracts of MCF-7-treated cells by means of the same fluorometric activity assay kit. In this latter case, MCF-7 nuclear extracts were obtained as follow: cell pellets were re-suspended in lysis buffer [Tris.HCl (10 mM, pH 8.0), KCl (60 mM), EDTA (1.2 mM), DTT (1 mM), PMSF (0.05 mM), NP-40 (0.05%)] and kept on ice for 10 min. Subsequently, samples were centrifuged at 1000 g and re-suspended in the nuclear extraction buffer [Tris.HCl (20 mM, (pH 8.0), NaCl (420 mM), MgCl2 (0.7 mM), EDTA (0.25 mM), glycerol (25%)] for 30 min at 4° C., and then centrifuged at 15000 g for 15 min at 4° C.
The complexes described here were specifically designed to release either VPA of PhB inside the cells in the hope that they will inhibit HDAC activity paving the way for more efficient DNA platination. Thus, in addition to measuring the levels of DNA platination, we also measured the ability of these pro-drugs to inhibit HDAC activity in cells. […] For comparison purposes, the HDAC inhibitory effect determined by tested complexes was also assayed in isolated nuclei of MCF-7 treated cells (FIG. 3B).
The HDAC activity was determined by the Fluor de Lys® Fluorescent Cellular Activity Assay (Enzo Life Sciences).
Also, MCF-7 cells were incubated for 24 h with increasing concentrations of compounds I-VIII and their HDAC activity was determined. The IC50 values for the inhibition of HDAC activity in the cells are depicted in FIG. 3C.

[2] = test system: Lewis lung carcinoma (LLC); assay: In vivo efficacy study, Lewis lung carcinoma mouse model; set-up: species or system C57BL mice; settings: day 7-14
Procedure: A preliminary in vivo efficacy study was carried out on a mouse model (see Table 3 below):
Lewis lung carcinoma (LLC) was implanted i.m. (2·10^6 cells inoculum) into the right hind leg of 8-week old inbred C57BL mice (24±3 g body weight). Chemotherapy was delayed until the tumor became visible (day 7).

[3] = octanol/water partition, shake-flask method; assay type: physicochemical
Procedure: To quantify the hydrophobicity of the platinum complexes, partition coefficients (log P) values for octanol/water partition were measured using the shake-flask method.

[4] = test system: MCF-7 cells; assay: MTT cytotoxicity assay, MCF-7; assay type: cell-based, human; settings: MCF-7, 72 h exposure, MTT; read-out: IC50 (median growth inhibitory concentration)
Procedure: Cisplatin (CDDP) and oxaliplatin (OXP) were dissolved just before the experiment in a 0.9% NaCl solution.
Human prostate adenocarcinoma (PC3) cells were obtained from European Collection of Cell Cultures (ECACC, Salisbury, UK). Human ovarian cancer cell lines A2780 and its cisplatin resistant variant, A2780cisR, were kindly provided by Prof.
Triplicate cultures were established for each treatment.

[5] = Stability in phosphate buffer (NMR); assay type: physicochemical; settings: phosphate buffer pH 7, 37° C.
Procedure: A solution 2.0 mM of 3a (Scheme 4) in sodium phosphate buffer (50 mM, pH=7) was kept at 37° C. for 3 days. NMR and HPLC measurements were performed every day.
A 2.0 mM solution of 3a in phosphate buffer at pH=7 was kept at 37° C. in order to assay its stability by mean of NMR spectroscopy (FIG. 7). […] The signal at 7.40 ppm was assigned to the amidic proton. The signals at 7.18 and 6.48 belong to the aromatic ring of the coordinated phenylbutyrate. The large difference in chemical shifts between the 2 ortho protons of the phenyl ring and the 3 meta and para protons, coupled with the unusually low chemical shifts for the aromatic ortho protons, indicates a strong intramolecular interaction with the phenanthroline. Finally, the peak at 6.37 belongs to the coordinated DCA.

[6] = test system: PSN-1 cells; assay: Glycolysis (Mito-ID O2 sensor), PSN-1; assay type: cell-based, human; settings: IC50 concentrations, 24 h
Procedure: (§1) Glycolysis. The cellular glycolytic activity was assessed using the Mito-ID® O2 Extracellular Sensor Kit according to the manufacturer's instructions (Enzo Life Sciences, Farmingdale, N.Y.). Briefly, PSN-1 cells (15·10^3 per well) were seeded in 96-well plates. After 24 h, cells were treated with Mito-ID® O2 Sensor Probe Solution containing the tested compounds at the appropriate concentration. Fluorescence was estimated using a plate reader (Fluoroskan Ascent FL, Labsystem, Finland) at 350 nm (excitation) and 610 nm (emission).
(§2) Based on the above findings, we investigated the effects determined by derivatives 3a and 3b on 2008 and PSN-1 cancer cell aerobic glycolysis and mitochondria function.
(§3) However, these effects were magnified in PSN-1 cells, having reduction of cellular glycolytic activity of about 36 and 20% for 3a and 3b, respectively. […] This latter result could be explained tacking into consideration that the reference compound [Pt(DACH)(56Phen)] itself, that is also released upon reduction of 3a and 3b, is effective in hampering cellular glycolysis in both tested cancer cell lines. The difference between 3a and 3b might be attributed to the added effect of DCA.

[7] = test system: PSN-1 cells; assay: Nuclear DNA fragmentation ELISA, PSN-1; assay type: cell-based, human; settings: 48 h, IC50
Procedure: FIGS. 13A-13B provide: FIG. 13A) Cytochrome c release. […] FIG. 13B) Nuclear DNA fragmentation. […] Quantitative estimation of DNA fragmentation was obtained with an ELISA test. Data are the means of five independent experiments. Error bars indicate SD.
After 48 h of treatment a roughly 20-fold increase in histone-DNA formation was detected with 3a with respect to controls.

[8] = Stability in cell culture medium DMEM (NMR); assay type: physicochemical; settings: 37° C.
Procedure: A solution 2.0 mM of 3a (Scheme 4) in DMEM was kept at 37° C. for 3 days. NMR measurements were performed every day.
A phosphate buffer solution is an oversimplified model for medium of biological relevance in order to test the stability of a drug candidate. […] Thus, as following step, we evaluated the stability of 3a in cell culture medium DMEM, where the biomolecules present can affect the overall degradation process. A 2.0 mM solution of 3a in DMEM monitored by ^1H NMR spectroscopy for 3 days at 37° C. (FIG. 8).

[9] = test system: 2008 cells; assay: Glycolysis (Mito-ID O2 sensor), 2008; assay type: cell-based, human; settings: IC50 concentrations, 24 h
Procedure: as §1, §2, §3

Molecule | effect on HDAC activity (in words) [1] | Average tumor weight (mean ± SD, g) ([2]; daily dose 1.5 mg kg^-1 i.p.) | Inhibition of tumor growth (%) ([2]; daily dose 1.5 mg kg^-1 i.p.) | Average tumor weight (mean ± SD, g) ([2]; daily dose 3 mg kg^-1 i.p.) | Inhibition of tumor growth (%) ([2]; daily dose 3 mg kg^-1 i.p.) | Log P [3] | IC50 [4] | Pt(IV)-phen reduced ([5]; after 2 days) | Pt(IV)-phen reduced ([5]; after 3 days) | Pt(IV)-cisPt NMR signal (1101 ppm) relative to Pt(IV)-phen signal (703 ppm) ([5]; after a day) | Pt(IV)-phen reduced ([5]; after one day) | reduction of cellular glycolytic activity [6] | fold increase in histone-DNA formation with respect to controls [7] | Pt(IV)-phen moiety reduced ([8]; after 1 day) | Pt(IV)-phen moiety reduced ([8]; after 2 days) | Pt(IV)-phen moiety reduced ([8]; after 3 days) | reduction of glycolysis processes compared with untreated control cells [9]
[NH2][Pt]([NH2])([Cl])[Cl] [CDDP, Cisplatin, reference compound] | not effective in modifying HDAC activity | 0.150 ± 0.07 g | 73.35% | 0.044 ± 0.07 g | 92.18% | −2.25 ± 0.04 | 17.4 ± 0.2 µM |  |  |  |  |  |  |  |  |  | 
c,c,t,t,c,c-[(DACH)(56Phen)(PhBu)Pt(μ-OOC—(CH2)2—CONH(CH2)3COO)—Pt(DCA)(NH3)2 (Cl2)](TFA)2 [Compound 3a] |  |  |  |  |  |  |  | about 9% | 10% | 15% | approximately 6.5% | about 36% | roughly 20 fold | about 22% | 39% | 58% | about 25%
